Data taken from US4880939A, “2,5,6,7-tetranor-18,18,19,19-tetradehydro-4,8-inter-m-phenylene PGI2 derivatives” (Toray Industries, priority 1986, dated 1989).
Values after ≈ are worked out from the molar mass of the structure shown. Where two headings read alike, the source gives them in different places.

What was measured:
[1] = unstable exo-enol structure; converted into 6-oxo PGF1α; cited from earlier work
[2] = background; cited from earlier work
[3] = test system: platelet aggregation, gastric acid secretion, peripheral blood vessel; settings: background; cited from earlier work
[4] = test system: gastric acid secretion; assay: Gastric acid secretion-inhibiting activity, pylorus ligation method (Shay); format: in vivo; settings: injected into duodenum, pylorus ligated rats, five hours, five animals; for ED50: Rattus norvegicus, 5 h; for ED50, Acidity (gastric acid secretion-inhibiting activity) / ED50, Gastric juice volume (gastric acid secretion-inhibiting activity): 300 min
Method: Gastric acid secretion-inhibiting activity of the compounds of the present invention was investigated according to the pylorus ligation method described by Shay in Gastroenterology, 5, 43 (1945).
Under anesthesia by ether, the abdomen of a group of rats is incised at its median and the pylorus is ligated with a silk thread. Simultaneously, a compound to be tested is injected into the duodenum of the same rat. The abdomen is then closed. Five hours later, the abdomen is again incised and the esophagus is ligated. The whole stomach is then removed. The stomach is cut along the greater curvature and the contents of the stomach are transferred to a graduated centrifugal tube. After centrifugation at 3,000 rpm for 10 minutes, the volume of the gastric juice is measured. A portion of the supernatant is taken and titrated to pH 7 with 0.1N NaOH in a pH stat, Radio Meter Inc. An average dose amount of a compound to be tested in a group of five animals, by which either the volume of gastric juice (in ml) or the acidity (in mEq/ml) is reduced to 50% of the corresponding value of a control group, is designated as ED50.

[5] = test system: lesions appearing on the stomach corpus; assay: Gastric cytoprotection activity (method of A. Robert; 0.2N NaOH-induced stomach lesions); format: in vivo; settings: dose reducing ulcer index to 50% of control, 30 minutes before 0.2N NaOH; for ED50: po; for ED50 (gastric cytoprotection activity): oral
Method: Gastric cytoprotection activity of the compounds of the present invention was investigated according to the method described by A. Robert in Gastroenterology, 77(3), 443 (1979).
A compound to be tested is orally administered to a group of animals and, 30 minutes later, 0.2N NaOH is orally applied to the animals. One hour later, the animals are sacrificed under anesthesia by chloroform and their stomachs are removed and fixed in 5% formalin solution. The stomach is then incised along the greater curvature. Lengths of lesions appearing on the stomach corpus are measured and summed. The total length is served as an ulcer index. A dose amount of a compound to be tested, by which the ulcer index is reduced to 50% of the index of a control group (100%), is designated as ED50.

[6] = test system: blood pressure in the carotid; assay: Hypotensive activity; format: in vivo, Wistar male rats; settings: dose reducing blood pressure by 25 mmHg, injected via femoral artery, chloralose anesthesia; for ED (25 mmHg): Rattus norvegicus, read-out: ED25 (hypotensive activity)
Method: A catheter is inserted into and held in the carotid of a group of Wistar male rats under anesthesia by chloralose. Another end of the catheter is connected to a polygraph with a pressure transducer to measure the blood pressure in the carotid. A compound to be tested is injected via a catheter connected to the femoral artery. A dose amount of a compound to be tested, by which the blood pressure is reduced by 25 mmHg in the dose-response curve of the hypotensive compound, is designated as ED25.

[7] = test system: platelet aggregation; assay: Platelet aggregation-inhibiting activity (ADP-induced, platelet-rich plasma); format: cell-based, person; settings: PRP, ADP 10 μM, compound added one minute before ADP; for IC50: Platelet
Method: The blood taken from the cubital median vein of a person is centrifuged at 800 rpm for 10 minutes and the supernatant is used as platelet-rich plasma (PRP). The PRP is distributed into small test tubes, and adenosine diphosphate (ADP) is added at a final concentration of 10 μM thereinto to induce platelet aggregation. The size of the aggregation is determined in a platelet aggregation measuring apparatus (RiKa-Denki, Tokyo, Japan) by measuring the change in turbidity of a sample in the small test tube. A compound to be tested is added to the sample one minute before the addition of ADP. The concentration of the compound to be tested, by which the platelet aggregation is reduced to 50% of that observed in a control group, is designated as IC50.

[8] = test system: gastric acid secretion; assay: Gastric acid secretion-inhibiting activity, method of M. Ghosh and H. Schild (perfused stomach, pentagastrin stimulation); format: in vivo, male SD rats; settings: ratio of index (area of pH time course) to that of PGE2; femoral vein injection; pentagastrin 0.05 μg/kg per minute
Description: The gastric acid secretion-inhibiting activity of the compounds of the present invention was also investigated according to the method described by M. Ghosh and H. Schild, Br. J. Pharmacol., 13, 54 (1958).
A group of male SD rats is incised in the abdomen under anesthesia by urethane. The lumen of the stomach is perfused with saline through a double tube cannula which has been inserted into the stomach through a lumen formed in the cardia. The pH of draining gastric acid is monitored by a pH meter. The secretion of gatric acid is stimulated by continuous infusion of pentagastrin at a rate of 0.05 μg/kg per minute. When the pH of the gastric acid becomes stable at about 4.0, a compound to be tested is injected through the femoral vein. An index for the gastric acid secretion-inhibiting activity of a compound to be tested is calculated from the area surrounded by a curve drawn by the time course of the pH of the gastric acid, from the time point when an initial increase of the pH is observed due to the gastric acid secretion-inhibition by the compound injected to the time point when the pH comes back to the baseline. The index thus obtained is compared to that of PGE2 and the ratio of the index to that of PGE2 is calculated.

[9] = background; cited from earlier work; remark: listed apart in the source
[10] = acidity reduced to 50% of control, read-out: ED50, Acidity (gastric acid secretion-inhibiting activity)
[11] = gastric juice volume reduced to 50% of control, read-out: ED50, Gastric juice volume (gastric acid secretion-inhibiting activity)
[12] = acidity reduced to 50% of control
[13] = gastric juice volume reduced to 50% of control

Row | Structure (SMILES) | ED50 [4, 10] [µg/kg] | ED50 [4, 11] [µg/kg] | ED50 [5] [µg/kg] | ED (25 mmHg) [6] [µg/kg] | IC50 [7] [ng/mL] | Relative activity (PGE2 = 1), gastric acid secretion-inhibiting activity [8] | further results
1 | CCCCC[C@H](O)/C=C/[C@@H]1[C@H]2C/C(=C/CCCC(=O)O)O[C@H]2C[C@H]1O [PGI2, Prostaglandin I2] | – | – | – | – | – | – | stability in neutral aqueous solutions [1]: extremely unstable; duration of physiological activities in vivo [2]: only short duration; stability in vivo [2]: unstable in vivo; gastric acid secretion-inhibiting activity [3]: potent; peripheral blood vessel-dilating activity [3]: potent; platelet aggregation-inhibiting activity [3]: potent
2 | CCC#CCC(C)(C)C(O)C=CC1C(O)CC2Oc3c(CCC(=O)O)cccc3C21 (stereo not shown) [Compound 57, 16,16-Dimethyl-20a-homo-2,5,6,7-tetranor-18,18,19,19-tetradehydro-4,8-inter-m-phenylene PGI2] | 87 | 210 | 1.14 | 0.14 | 3.2 (≈ 7.76 nM) | 5.3 | –
3 | CCCC#CCC(C)C(O)C=CC1C(O)CC2Oc3c(CCC(=O)O)cccc3C21 (stereo not shown) [Compound 46, 16-Methyl-20a,20b-dihomo-2,5,6,7-tetranor-18,18,19,19-tetradehydro-4,8-inter-m phenylene PGI2] | 140 | 120 | 2.33 | 0.22 | 0.96 (≈ 2.33 nM) | – | –
4 | CC#CCC(C)(C)C(O)C=CC1C(O)CC2Oc3c(CCCO)cccc3C21 (stereo not shown) [Compound 69, 3-Decarboxy-3-hydroxymethyl-16,16-dimethyl-2,5,6,7-tetranor-18,18,19,19-tetradehydro-4,8-inter-m-phenylene PGI2] | 270 | > 3000 | 0.82 | > 100 | – | 2.7 | –
5 | CCC#CCC(C)C(O)C=CC1C(O)CC2Oc3c(CCC(=O)O)cccc3C21 (stereo not shown) [Compound 42, 16-Methyl-20a-homo-2,5,6,7-tetranor-18,18,19,19-tetradehydro-4,8-inter-m-phenylene PGI2] | 23 | 18 | – | – | 0.34 (≈ 0.853 nM) | 26 | –
6 | CCCCC#CCC(C)(C)C(O)C=CC1C(O)CC2Oc3c(CCC(=O)O)cccc3C21 (stereo not shown) [Compound 60, 16,16-Dimethyl-20a,20b,20c-trihomo-2,5,6,7-tetranor-18,18,19,19-tetradehydro-4,8-inter-m-phenylene PGI2] | > 3000 | > 3000 | – | – | 3 (≈ 6.81 nM) | 0.5 | –
7 | CC#CCC(C)C(O)C=CC1C(O)CC2Oc3c(CCC(=O)O)cccc3C21 [Compound 39, 16(S)-methyl-2,5,6,7-tetranor-18,18,19,19-tetradehydro-4,8-inter-m-phenylene PGI2] | – | – | – | – | – | – | ED50, Acidity (gastric acid secretion-inhibiting activity) [4, 12]: 9.5 µg/kg; ED50, Gastric juice volume (gastric acid secretion-inhibiting activity) [4, 13]: 25 µg/kg; ED50 (gastric cytoprotection activity) [5]: 0.38 µg/kg; ED25 (hypotensive activity) [6]: 0.07 µg/kg; IC50 (platelet aggregation-inhibiting activity) [7]: 0.42 ng/mL (≈ 1.09 nM)
8 | CCCCCC#CCC(C)(C)C(O)C=CC1C(O)CC2Oc3c(CCC(=O)O)cccc3C21 (stereo not shown) [Compound 64, 16,16-dimethyl-20a,20b,20c,20d-tetrahomo-2,5,6,7-tetranor-18,18,19,19-tetradehydro-4,8-inter-m-phenylene PGI2] | > 10000 | 5600 | 27.7 | 15.5 | 5.5 (≈ 12.1 nM) | 0.25 | –
9 | CC#CCC(C)C(O)C=CC1C(O)CC2Oc3c(CCC(=O)O)cccc3C21 [Compound 38, 16(R)-Methyl-2,5,6,7-tetranor-18,18,19,19-tetradehydro-4,8-inter-m-phenylene PGI2] | – | – | – | – | – | – | ED50, Acidity (gastric acid secretion-inhibiting activity) [4, 12]: 490 µg/kg; ED50, Gastric juice volume (gastric acid secretion-inhibiting activity) [4, 13]: > 1000 µg/kg; ED50 (gastric cytoprotection activity) [5]: 24.1 µg/kg; ED25 (hypotensive activity) [6]: 0.57 µg/kg; IC50 (platelet aggregation-inhibiting activity) [7]: 6.5 ng/mL (≈ 16.9 nM)
10 | CC#CCC(C)(C)C(O)C=CC1C(O)CC2Oc3c(CCC(=O)O)cccc3C21 (stereo not shown) [Compound 54, 16,16-Dimethyl-2,5,6,7-tetranor-18,18,19,19-tetradehydro-4,8-inter-m-phenylene PGI2] | 230 | > 300 | 2.8 | 0.64 | 7.3 (≈ 18.3 nM) | 16 | –
11 | CCCCC[C@H](O)/C=C/[C@H]1[C@H](O)CC(=O)[C@@H]1C/C=C\CCCC(=O)O [PGE2, reference compound] | – | – | – | – | – | 1 | –
12 | CCCCC[C@H](O)/C=C/[C@@H]1[C@@H](CC(=O)CCCCC(=O)O)[C@@H](O)C[C@H]1O [6-oxo PGF1α] | – | – | – | – | – | – | physiological activity [9]: substantially inactive physiologically
13 | CCCCC#CCC(C)C(O)C=CC1C(O)CC2Oc3c(CCC(=O)O)cccc3C21 (stereo not shown) [Compound 50, 16-Methyl-20a,20b,20c-trihomo-2,5,6,7-tetranor-18,18,19,19-tetradehydro-4,8-inter-m-phenylene PGI2] | 740 | 510 | 3.74 | – | 0.63 (≈ 1.48 nM) | – | –
